These results are taken from patent publication US10695341B2, “Compositions and methods for treating endometriosis” (UNIVERSITY OF SOUTH FLORIDA, priority 2014, dated 2020).

The subject of test [1] is life-extended human endometriotic cells. Briefly: CellTiter-glo survival assay, life-extended human endometriotic cells, HCQ. It is filed as cell-based. The note with it: 25 μM HCQ, 5 days, cells from two different types of lesions, p<0.0001. As to the method: Primary human endometriotic cells culture conditions and life extension have been previously described. These cells were derived from two different types of lesions (two independent patients) which were assessed separately as described below. Briefly, cells were maintained in MCDB 131:Medium 199 (1:1 ratio) supplemented with 8% FBS, penicillin/streptomycin, and insulin/transferrin/selenium (ITS). Cells were life-extended using SV40 Large T antigen. Retroviral particles generated in HEK293T were used to infect the primary cells. Media containing puromycin (2.5 μg/ml) was used to select primary cells resistant colonies. In addition, we obtained the T-HESC cell line, which are human endometrial stromal cells derived from a uterine myoma (ATCC, Manassas, Va.). This cell line was maintained in phenol red-free DMEM/F12 (1:1) containing 8% charcoal-dextran treated FBS, 500 ng/mL puromycin, 1% ITS+ Premix (BD Bioscience, San Jose, Calif.), and 15 mM HEPES. The cell lines used in the present study were tested to be mycoplasma negative and STR (short tandem repeat) profiled (Genetica DNA Laboratories, Cincinnati, Ohio). Endometriotic cells were seeded at 50,000 cells/well in a 24-well plate, whereas T-HESC cells were seeded at 250,000 cells/well in a 6-well plate. […] Cell viability was then assessed using CellTiter-glo reagent (Promega, Madison, Wis.).
(In general: Cellular ATP, detected with luciferase, serves as a proxy for viable cell number.)

Test [2] relates to LC3B-II. The test is described as follows: Western blot for LC3B, life-extended human endometriotic cells, HCQ. It is filed as cell-based. As to conditions: 25 μM HCQ, 18 hours. In general terms: In western blotting, separated proteins are transferred to a membrane and probed.
Test [3] concerns peritoneal macrophages. The test is described as follows: Peritoneal macrophage flow cytometry (CD11b, F4/80). It is filed as in vivo, mouse. The note with it: HCQ-treated vs PBS-treated mice, p=0.0079. As to the method: The pellet obtained after centrifugation of the peritoneal fluid wash (see above) was utilized for macrophage staining. When necessary, red blood cell lysis was performed according to the manufacturer's protocol (eBioscience, San Diego, Calif.). The cell pellets were resuspended in 1 ml cold PBS and transferred to flow cytometry tubes. Samples were centrifuged for 1 min at 1,390 rpm. The supernatant was decanted and cells were resuspended in 100 μl of PBS. Cells were blocked using 0.5 μg of Mouse BD Fc, Block™ (#553141, BD Pharmingen, San Jose, Calif.) for 5 min on ice. The cells were incubated in 0.4 μg of APC Rat anti-mouse CD11b clone M1/70 (#553312, BD Pharmingen, San Jose, Calif.) and anti mPE-F4/80/EMR1 (# FAB5580C, R&D Systems, Minneapolis, Minn.)) at room temperature for 30 min, protected from light. After incubation, 700 μl of PBS was added to each tube and centrifuged for 1 min at 4° C. The supernatant was decanted, and the cells were resuspended in 300 μl in PBS and analyzed by flow cytometry.

In test [4] the test system is LC3B-II. The test is described as follows: Western blot of LC3B in other organs of treated mice. It is filed as in vivo, mouse. The note with it: 5 HCQ-treated vs 5 PBS-treated mice. As to the method:
Tissues used for protein analyses included uterine horns, ectopic lesions, ovaries, thymus, kidneys, heart, pancreas, spleen, and liver. Samples were flash frozen in liquid nitrogen and stored at -80° C. until use. Tissues were homogenized in ice-cold lysis buffer containing 1% Triton X-100, 50 mM HEPES, 150 mM NaCl, 1 mM MgCl2, 1 mM EGTA, 10% glycerol, and protease inhibitor cocktail (Roche, Indianapolis, Ind.) using a PowerGen 125 homogenizer (Fisher Scientific, Pittsburgh, Pa.). Samples were centrifuged at 14,000 rpm for 10 min at 4° C. The supernatants were collected and total protein concentration was determined using the BCA assay (ThermoScientific, Rockford, Ill.), and a Bio Tek synergy 2 microplate reader (Winooski, Vt.). Samples were normalized and then run onto 10 or 12% SDS-polyacrylamide gels prepared in a Criterion® Cassette system (Bio-Rad, Hercules, Calif.) as previously described. The following antibodies and dilutions were used: LC3B rabbit polyclonal (#2775, 1:1,000), LC3A rabbit monoclonal (#4599 ([…]), 1:1,000), Beclin-1 rabbit polyclonal (#3738, 1:1,000), GABARAPL1 rabbit monoclonal (#13733 (E1J4E), 1:1,000), AMPKα rabbit monoclonal (#2603 (23A3), 1:500), FOXO1 rabbit monoclonal (#2880 (C29H4), 1:1,000), and Pan-Actin rabbit polyclonal (#4968, 1:500) were all obtained from Cell Signaling Technology (Danvers, Mass.). […]

For `CCN(CCO)CCCC(C)Nc1ccnc2cc(Cl)ccc12` (centres unmarked) [HCQ, hydroxychloroquine], the “cell survival of human endometriotic cells” value in test [1] was “marked reduction”. In addition, in test [2], the “LC3B-II protein (western blot)” value was “increased”. Moreover, the “macrophage numbers in peritoneal cavity” value in test [3] is on record as “significant increase”. In test [4], the “LC3B-II expression in heart” value is “showed differences” and the “LC3B-II expression in lung” value is recorded as “showed differences”.
